In PubChem BioAssay (NCI):
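Growth conditions: 96-well plates. Treatment: test compound, 48 hours, 5 concentrations. Analysis: linear interpolation between bracketing concentrations; unreached endpoints set to highest concentration. TGI denotes the concentration required for complete inhibition of growth.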

Columns and labels:
Experiment in all cases: NCI tumour cell line growth inhibition, 48 h
SNB-19 CNS = system: SNB-19 CNS
SK-MEL-5 melanoma = system: SK-MEL-5 melanoma
BT-549 breast = system: BT-549 breast
HT29 colon = system: HT29 colon
MDA-N = system: MDA-N
CCRF-CEM leukemia = system: CCRF-CEM leukemia
SN12C renal = system: SN12C renal
HCC-2998 colon = system: HCC-2998 colon
MDA-MB-231 breast = system: MDA-MB-231 breast
EKVX NSCLC = system: EKVX NSCLC
HL-60(TB) leukemia = system: HL-60(TB) leukemia

## O=c1c(Sc2ncccn2)c(Sc2ncccn2)cnn1CCl
SNB-19 CNS
  TGI: 32.8 µM
SK-MEL-5 melanoma
  TGI: 21.2 µM
BT-549 breast
  TGI: 31 µM
HT29 colon
  TGI: 4.67 µM
MDA-N
  TGI: 5.59 µM
CCRF-CEM leukemia
  TGI: 7.68 µM
SN12C renal
  TGI: 9.37 µM
HCC-2998 colon
  TGI: 24 µM
MDA-MB-231 breast
  TGI: 19 µM
EKVX NSCLC
  TGI: 8.65 µM
HL-60(TB) leukemia
  TGI: 5 µM

## O=C(Nc1ccc(S(=O)(=O)Nc2ncccn2)cc1)c1c2ccccc2nc2ccccc12
SNB-19 CNS
  TGI: > 100 µM
SK-MEL-5 melanoma
  TGI: > 100 µM
BT-549 breast
  TGI: > 100 µM
HT29 colon
  TGI: > 100 µM
MDA-N
  TGI: > 100 µM
SN12C renal
  TGI: > 100 µM
HCC-2998 colon
  TGI: > 100 µM
MDA-MB-231 breast
  TGI: > 100 µM
EKVX NSCLC
  TGI: > 100 µM
HL-60(TB) leukemia
  TGI: > 100 µM

## Cc1ncc(CO)c(C=NCCCCCCN=Cc2c(CO)cnc(C)c2O)c1O
SNB-19 CNS
  TGI: > 100 µM
SK-MEL-5 melanoma
  TGI: > 100 µM
BT-549 breast
  TGI: > 100 µM
HT29 colon
  TGI: > 100 µM
MDA-N
  TGI: > 100 µM
CCRF-CEM leukemia
  TGI: > 100 µM
SN12C renal
  TGI: > 100 µM
HCC-2998 colon
  TGI: > 100 µM
MDA-MB-231 breast
  TGI: > 100 µM
EKVX NSCLC
  TGI: > 100 µM
HL-60(TB) leukemia
  TGI: > 100 µM

## COC(=O)CCC(C)[C@H]1CCC2C3C(C[C@H](OC(C)=O)[C@@]21C)[C@@]1(C)CCC2(C[C@H]1C[C@H]3OC(C)=O)OOC1(CCCCC1)OO2 (some centres not stated)
SNB-19 CNS
  TGI: > 100 µM
SK-MEL-5 melanoma
  TGI: > 100 µM
BT-549 breast
  TGI: > 100 µM
HT29 colon
  TGI: > 100 µM
MDA-N
  TGI: > 100 µM
CCRF-CEM leukemia
  TGI: > 100 µM
SN12C renal
  TGI: > 100 µM
HCC-2998 colon
  TGI: > 100 µM
MDA-MB-231 breast
  TGI: > 100 µM
EKVX NSCLC
  TGI: 18.8 µM
HL-60(TB) leukemia
  TGI: > 100 µM

## Oc1ccc(Cn2c(-c3ccc(O)cc3)nc3ccccc32)cc1
SNB-19 CNS
  TGI: > 100 µM
SK-MEL-5 melanoma
  TGI: > 100 µM
BT-549 breast
  TGI: > 100 µM
HT29 colon
  TGI: > 100 µM
MDA-N
  TGI: > 100 µM
CCRF-CEM leukemia
  TGI: > 100 µM
SN12C renal
  TGI: > 100 µM
HCC-2998 colon
  TGI: > 100 µM
MDA-MB-231 breast
  TGI: > 100 µM
EKVX NSCLC
  TGI: > 100 µM
HL-60(TB) leukemia
  TGI: > 31.6 µM

## CC(=O)C1C(=O)C(=O)N(c2ccc(Br)cc2)C1=O (configuration not stated)
SNB-19 CNS
  TGI: > 100 µM
SK-MEL-5 melanoma
  TGI: > 100 µM
BT-549 breast
  TGI: > 100 µM
HT29 colon
  TGI: > 100 µM
MDA-N
  TGI: > 100 µM
CCRF-CEM leukemia
  TGI: > 100 µM
SN12C renal
  TGI: > 100 µM
HCC-2998 colon
  TGI: > 100 µM
MDA-MB-231 breast
  TGI: > 100 µM
EKVX NSCLC
  TGI: > 100 µM
HL-60(TB) leukemia
  TGI: > 100 µM

## Cc1cn2c(/C=C3/C(=O)Nc4ccccc43)c(C)nc2s1
SNB-19 CNS
  TGI: > 100 µM
SK-MEL-5 melanoma
  TGI: 14.6 µM
BT-549 breast
  TGI: > 100 µM
HT29 colon
  TGI: 15.5 µM
MDA-N
  TGI: 0.492 µM
CCRF-CEM leukemia
  TGI: 8.91 µM
SN12C renal
  TGI: 42.2 µM
HCC-2998 colon
  TGI: 19.5 µM
MDA-MB-231 breast
  TGI: 43.4 µM
EKVX NSCLC
  TGI: > 100 µM
HL-60(TB) leukemia
  TGI: 2.53 µM

## Cc1ccc(-n2cc(-c3ccc(Cl)cc3)c3c2N=CN2NC(c4cccs4)=NC32)cc1 (configuration not stated)
SNB-19 CNS
  TGI: 51.1 µM
SK-MEL-5 melanoma
  TGI: > 100 µM
BT-549 breast
  TGI: 53.7 µM
HT29 colon
  TGI: > 100 µM
MDA-N
  TGI: > 100 µM
CCRF-CEM leukemia
  TGI: 42.4 µM
SN12C renal
  TGI: 29 µM
HCC-2998 colon
  TGI: > 100 µM
MDA-MB-231 breast
  TGI: 21.5 µM
EKVX NSCLC
  TGI: 57.1 µM
HL-60(TB) leukemia
  TGI: 45.1 µM

## CC1=C(C(=O)NC(C)(C)C)CC(C(=O)NC(C)(C)C)C(C)N1 (configuration not stated)
SNB-19 CNS
  TGI: > 100 µM
SK-MEL-5 melanoma
  TGI: > 100 µM
BT-549 breast
  TGI: > 100 µM
HT29 colon
  TGI: > 100 µM
MDA-N
  TGI: > 100 µM
CCRF-CEM leukemia
  TGI: > 100 µM
SN12C renal
  TGI: > 100 µM
HCC-2998 colon
  TGI: > 100 µM
MDA-MB-231 breast
  TGI: > 100 µM
EKVX NSCLC
  TGI: > 100 µM
HL-60(TB) leukemia
  TGI: > 100 µM

## O=C(O)CO/N=C1/C(c2c(O)[nH]c3ccccc23)=Nc2ccccc21
SNB-19 CNS
  TGI: > 100 µM
SK-MEL-5 melanoma
  TGI: 80 µM
BT-549 breast
  TGI: > 100 µM
HT29 colon
  TGI: > 100 µM
MDA-N
  TGI: > 100 µM
CCRF-CEM leukemia
  TGI: > 100 µM
SN12C renal
  TGI: > 100 µM
HCC-2998 colon
  TGI: > 100 µM
MDA-MB-231 breast
  TGI: > 100 µM
EKVX NSCLC
  TGI: > 100 µM
HL-60(TB) leukemia
  TGI: > 100 µM

## COc1cccc(C(=O)N[C@@H]2[C@H](O)[C@@H](CO)O[C@H]2n2cnc3c(N)ncnc32)c1
SNB-19 CNS
  TGI: > 100 µM
SK-MEL-5 melanoma
  TGI: > 100 µM
BT-549 breast
  TGI: > 100 µM
HT29 colon
  TGI: > 100 µM
MDA-N
  TGI: > 100 µM
CCRF-CEM leukemia
  TGI: > 100 µM
SN12C renal
  TGI: > 100 µM
HCC-2998 colon
  TGI: > 100 µM
MDA-MB-231 breast
  TGI: > 100 µM
EKVX NSCLC
  TGI: > 100 µM
HL-60(TB) leukemia
  TGI: > 100 µM

## CC(=O)/C(=C(/Br)I)c1ccccc1
SNB-19 CNS
  TGI: 37.5 µM
SK-MEL-5 melanoma
  TGI: 30.8 µM
BT-549 breast
  TGI: 6.33 µM
HT29 colon
  TGI: 13.8 µM
MDA-N
  TGI: 14.8 µM
CCRF-CEM leukemia
  TGI: 11.3 µM
SN12C renal
  TGI: 17.4 µM
HCC-2998 colon
  TGI: 12.3 µM
MDA-MB-231 breast
  TGI: 28.7 µM
EKVX NSCLC
  TGI: 26.5 µM
HL-60(TB) leukemia
  TGI: 4.95 µM

## COC(=O)C1(C)OC(C)=NC1(C(=O)OC)C(=O)OC (configuration not stated)
SNB-19 CNS
  TGI: > 100 µM
SK-MEL-5 melanoma
  TGI: > 100 µM
BT-549 breast
  TGI: > 31.6 µM
HT29 colon
  TGI: > 100 µM
MDA-N
  TGI: > 100 µM
CCRF-CEM leukemia
  TGI: > 44 µM
SN12C renal
  TGI: > 100 µM
HCC-2998 colon
  TGI: > 100 µM
MDA-MB-231 breast
  TGI: > 100 µM
EKVX NSCLC
  TGI: > 100 µM
HL-60(TB) leukemia
  TGI: 14.4 µM

## COC(=O)C1=NN2c3ccccc3CN([C@@H](C)c3ccccc3)C(=O)[C@H]2[C@@H]1C
SNB-19 CNS
  TGI: > 100 µM
SK-MEL-5 melanoma
  TGI: 30.1 µM
BT-549 breast
  TGI: 95.3 µM
HT29 colon
  TGI: > 100 µM
MDA-N
  TGI: > 100 µM
CCRF-CEM leukemia
  TGI: > 100 µM
SN12C renal
  TGI: > 100 µM
HCC-2998 colon
  TGI: > 100 µM
MDA-MB-231 breast
  TGI: > 100 µM
EKVX NSCLC
  TGI: > 100 µM
HL-60(TB) leukemia
  TGI: > 100 µM

## CN1CCCC(C(=O)OCC(=O)C2(O)CCC3C4CCC5=CC(=O)CCC5(C)C4C(O)CC32C)C1 (configuration not stated)
SNB-19 CNS
  TGI: 30.9 µM
SK-MEL-5 melanoma
  TGI: 41.3 µM
BT-549 breast
  TGI: 33.6 µM
HT29 colon
  TGI: 27 µM
MDA-N
  TGI: 26.8 µM
CCRF-CEM leukemia
  TGI: 35.6 µM
SN12C renal
  TGI: 24 µM
HCC-2998 colon
  TGI: 22.1 µM
MDA-MB-231 breast
  TGI: 19.2 µM
EKVX NSCLC
  TGI: 67.1 µM
HL-60(TB) leukemia
  TGI: 11 µM

## CCCCCCC(=O)OC[n+]1cccc(-c2c(COC(=O)NC(C)C)c(COC(=O)NC(C)C)c3n2CCC3)c1
SNB-19 CNS
  TGI: > 100 µM
SK-MEL-5 melanoma
  TGI: > 88.9 µM
BT-549 breast
  TGI: > 96.4 µM
HT29 colon
  TGI: > 100 µM
MDA-N
  TGI: > 100 µM
CCRF-CEM leukemia
  TGI: > 66.5 µM
SN12C renal
  TGI: > 100 µM
HCC-2998 colon
  TGI: > 100 µM
MDA-MB-231 breast
  TGI: > 100 µM
EKVX NSCLC
  TGI: > 100 µM
HL-60(TB) leukemia
  TGI: > 48.9 µM

## Cc1cc(-c2ccc(C(=O)C(c3ccccc3)(c3ccccc3)c3ccccc3)[nH]2)on1
SNB-19 CNS
  TGI: 58.4 µM
SK-MEL-5 melanoma
  TGI: 29.4 µM
BT-549 breast
  TGI: 45.8 µM
HT29 colon
  TGI: 25.6 µM
MDA-N
  TGI: 41 µM
CCRF-CEM leukemia
  TGI: 52.9 µM
SN12C renal
  TGI: 40.6 µM
HCC-2998 colon
  TGI: 25.6 µM
MDA-MB-231 breast
  TGI: 49.6 µM
EKVX NSCLC
  TGI: 39.9 µM
HL-60(TB) leukemia
  TGI: 26.1 µM

## NCCC1([N+](=O)[O-])CCNCC1
SNB-19 CNS
  TGI: > 100 µM
SK-MEL-5 melanoma
  TGI: > 100 µM
BT-549 breast
  TGI: > 100 µM
HT29 colon
  TGI: > 100 µM
MDA-N
  TGI: > 100 µM
CCRF-CEM leukemia
  TGI: > 100 µM
SN12C renal
  TGI: > 100 µM
HCC-2998 colon
  TGI: > 100 µM
MDA-MB-231 breast
  TGI: > 100 µM
EKVX NSCLC
  TGI: > 100 µM
HL-60(TB) leukemia
  TGI: > 100 µM
